Laboratory results published in patent US12281123B2, “Benzoxazinone compounds as KLK5/7 dual inhibitors” (MOLECULAR SKIN THERAPEUTICS, INC., priority 2019, dated 2025).
Entries after “also recorded” stand apart in the source; their conditions may differ. Marks after values point to notes of the source that are not given here.

Test system: KLK proteases in human skin extract
Assay: Inhibition of protease activity in human skin extract
Type: biochemical
Protocol: Materials: The peptide substrates PS-01 (YRSR-pNA Tyr-Arg-Ser-Arg-pNA) (SEQ ID NO. 1) and PS-02 (Lys-His-Leu-Tyr-pNA) (SEQ ID NO. 2) were synthesized by Zamboni Chemical Solutions (Montreal, Canada). Human epidermis samples were obtained from Biopredic (Saint-Grégoire, France). The BCA protein assay kit was bought from VWR.
Preparation of skin extract: The epidermis was frozen and lyophilized. A sample of 15 mg lyophilized epidermis was immersed in 1 mL high salt buffer (100 mM Tris, 5 mM EDTA, 2M KCl, pH 8), frozen twice in dry ice and thawed. After incubation overnight at 4° C. and addition of six 2.4 mm metal beads, the sample was homogenized in a Bertin Precellys Homogenizer (Atkinson, NH) three times at […] for 20 seconds each and cooled in between for 30 seconds. After centrifugation at maximal speed in a desktop minifuge, the protein concentration of the supernatant was determined by BCA assay (˜0.5 mg/mL).
Inhibition of protease activity in skin extract: Stock solutions of 200, 66, 22 and 0 μM of the tested compound in DMSO were prepared. Substrate stocks of 1100 μM PS-01 and PS-02 were prepared by dissolving in water. The wells of a 384 well plate was filled with 50 μL 2× assay buffer (see above) and then 45 μL substrate stock and 5 μL of the test compound were added. The reaction was started by addition of 10 μL skin extract for the substrate PS-02 and 5 μL for the substrate PS-01. The substrate hydrolysis was monitored in multi-well plate reader at 405 nm.
Chromogenic substrate cleavage progressions of Compounds 1.001, 1.002, and 14 were tested according to human stratum corneum extract assay of Example 4 using KLK5 and KLK7 preferred chromogenic peptide substrates (PS-01 and PS-02). The proteolytic cleavage of KLK5 selective substrate in skin extract by Compounds 1.001, 1.002, and 14 are compared and shown in FIGS. 4A-4D. NSK refers to extract from skin freshly prepared; and OSK refers to extract from skin post freeze thaw.

[1] = human skin extract, Conc 3.3 μM

SMILES: CS(=O)(=O)c1cc(CO)ccc1-c1nc2cc3c(cc2c(=O)o1)OCCO3 [Compound 1.001, 2-(4-(Hydroxymethyl)-2-(methylsulfonyl)phenyl)-7,8-dihydro-4H-[1,4]dioxino[2′,3′:4,5]benzo[1,2-d][1,3]oxazin-4-one]
- Inhibition of proteolytic activity of skin extract, in words (compared to compounds 14 and 1.002, FIGS. 4A-4D (NSK), KLK5 selective substrate): more potent inhibition of proteolytic activity; also recorded: more potent inhibitor of the proteolytic activity of skin extract
- Initial rate of proteolytic activity (human skin extract, Conc 1 μM): 0.04* Absorbance405/min
- Initial rate of substrate hydrolysis (human skin extract, Conc 1 μM): 0.02* Absorbance405/min
- Initial rate of proteolytic activity [1]: 0.07* Absorbance405/min
- Initial rate of substrate hydrolysis [1]: 0.04* Absorbance405/min
- Rate in Skin Assay (human skin extract, compound concentration not given): 0.004* Absorbance405/min
